Results published in a compilation of properties of binary mixtures (doi:10.1016/j.molliq.2016.03.072).

Assay: xn = mol fraction of the nth substance listed
Conditions: 101 kPa

CN(C)C=O + CCCC[n+]1ccn(C)c1.F[P-](F)(F)(F)(F)F
x1 = 1
Conditions | viscosity [mPa·s]
303.15 K | 0.83
313.15 K | 0.74
323.15 K | 0.66

CCCC[n+]1ccn(C)c1.F[P-](F)(F)(F)(F)F + CN(C)C=O
viscosity [mPa·s]
Conditions | x2 = 0 | x2 = 0.3028 | x2 = 0.4909 | x2 = 0.6262 | x2 = 0.7227 | x2 = 0.7963 | x2 = 0.8543 | x2 = 0.9012 | x2 = 0.9399 | x2 = 0.9724
303.15 K | – | 52.1 | 15.21 | 6.21 | 3.48 | – | 1.93 | 1.5 | – | 0.98
313.15 K | 129.7 | 28.84 | – | 5.2 | 3.33 | 2.12 | – | 1.26 | 1.05 | 0.83
323.15 K | 88.5 | 25.91 | – | – | 2.2 | 1.82 | 1.51 | 1.08 | 0.91 | 0.77
